From PMC12519461 (ACS Infectious Diseases, 2025) come the findings set out here.

Read-outs that look alike come from different tables or passages of the source. Bounds are passed on as bounds.

One may read the EC50 as the midpoint of the concentration-response curve. What is called LC50 is the concentration that kills 50% of the test population. As a reminder, the CC50 is the concentration at which the toxic effect on the cells reaches its halfway point. Low values mean harm at low concentration, high ones better tolerance by the cells.

For data set [1], the system named is A. cantonensis L1 larvae. Nature of the data set: Anthelmintic activity against A. cantonensis first-stage larvae (motility/viability, 24 h). In kind it is cell-based, Angiostrongylus cantonensis. The settings on record: for EC50: 24 h, read-out: A. cantonensis EC50 (μM ± SEM) L1; for activity against the larvae (in words): A. cantonensis larvae in vitro. The method, then:
(§1) Larvae were washed three times in RPMI 1640 medium supplemented with 100 U/mL penicillin and 100 μg/mL streptomycin. Approximately 50 larvae were allocated into individual wells of a 96-well plate containing 200 μL of final volume of RPMI medium. […] Approximately 50 larvae were transferred to each well of a 96-well plate containing RPMI medium. […] Larval viability was monitored at 0 and 24 h post-treatment. […] Assays were performed in triplicate and repeated three times.

A short description of data set [2]: in vitro. In kind it is cell-based. The following applies: L4 larvae, up to 1000 μM, read-out: C. elegans LC50. As for the experimental part:
Synchronized fourth-stage (L4) C. elegans larvae were distributed into 96-well plates containing M9 buffer (60 larvae/well). […] After 24 h incubation at 21 °C, larval survival was determined by motility: larvae unresponsive to gentle mechanical stimulation were classified as nonviable. […] Assays were performed in triplicate and repeated three times.

The nature of data set [3]: Cytotoxicity in HaCat cells (MTT, 72 h). In kind it is cell-based. The following applies: human, from 500 μM. As for the experimental part: Cytotoxicity was assessed using the MTT assay. After 72 h, MTT solution was added, followed by 3 h of incubation. Absorbance was measured at 595 nm using an Epoch Microplate Spectrophotometer (BioTek Instruments, Winooski, VT, USA). Assays were performed in triplicate and repeated three times.

In data set [4] the test system is A. cantonensis L3 larvae. In words: Anthelmintic activity against A. cantonensis infective third-stage larvae (motility/viability, 24 h). In kind it is cell-based, Angiostrongylus cantonensis. The following applies: in vitro, 21 °C, read-out: A. cantonensis EC50 (μM ± SEM) L3. The method, then: as §1
The mark [5] stands for this setting: Angiostrongylus cantonensis, first-stage larvae (L1), in vitro, 21 °C.
Where [6] appears, read: first-stage larvae (L1), in vitro, 21 °C.

As to `CCCSc1ccc2nc(NC(=O)OC)[nH]c2c1` [albendazole, reference compound], the EC50 in data set [1] (Angiostrongylus cantonensis) amounted to 14.2 ± 1.1 µM. Besides, the LC50 at 24 h in data set [2] stood at 14.8 ± 1.5 µM. Moreover, the 50% cytotoxic concentration (CC50) at 72 h in data set [3] is > 500 µM.

Take `C(=C\c1ccccc1)/CN1CCN(C(c2ccccc2)c2ccccc2)CC1` [compound 1, cinnarizine, reference compound]: in data set [2], the LC50 at 24 h is > 1000 µM.

`C(=C\c1ccccc1)/CN1CCN(Cc2ccccc2)CC1` [compound 1a, 1-Benzyl-4-[(E)-cinnamyl]piperazine]: the “activity against the larvae (in words)” value in data set [1] was “no appreciable activity”. In addition, the EC50 in data set [1] (setting [5]) is > 100 µM. For the same compound, the LC50 at 24 h in data set [2] was > 1000 µM. In data set [3] (HaCat cells), the CC50 at 72 h is > 500 µM.

Regarding `COc1ccc(/C=C/CN2CCN(C(c3ccccc3)c3ccccc3)CC2)cc1` [compound 1b, 1-Benzhydryl-4-[(E)-3-(4-methoxyphenyl)allyl]piperazine], the EC50 is 8.2 to 9.3 µM in data set [1] (setting [5]), 8.2 ± 1.2 µM in data set [1] (setting [6]), 8.2 to 9.3 µM in data set [4] (Angiostrongylus cantonensis) and 8.7 ± 0.9 µM in data set [4]. In addition, in data set [2], the LC50 at 24 h is > 1000 µM. Further, the CC50 at 72 h in data set [3] (HaCat cells) is > 500 µM.

On to `Clc1ccc(C(c2ccccc2)N2CCN(C/C=C/c3ccccc3)CC2)cc1` (stereo not shown) [compound 2, 1-[(4-Chlorophenyl)-phenyl-methyl]-4-[(E)-cinnamyl]piperazine, reference compound], for which the EC50 came out at 4.2 ± 1.1 µM in data set [1] (setting [5]) and 8.6 ± 1.1 µM in data set [4] (Angiostrongylus cantonensis). Besides, in data set [2], the LC50 at 24 h was > 1000 µM. Further, the CC50 at 72 h in data set [3] (HaCat cells) was > 500 µM.

On to `Clc1ccc(CN2CCN(C/C=C/c3ccccc3)CC2)cc1` [compound 2a, 1-[(4-Chlorophenyl)methyl]-4-[(E)-cinnamyl]piperazine], for which, in data set [1], the “activity against the larvae (in words)” value is “no appreciable activity”. Also, the EC50 in data set [1] (setting [5]) is > 100 µM. In addition, the LC50 at 24 h in data set [2] is > 1000 µM. Besides, the CC50 at 72 h in data set [3] (HaCat cells) is > 500 µM.

In the case of `COc1ccc(/C=C/CN2CCN(C(c3ccccc3)c3ccc(Cl)cc3)CC2)cc1` (stereo not shown) [compound 2b, 1-[(4-Chlorophenyl)-phenyl-methyl]-4-[(E)-3-(4-methoxyphenyl)allyl]piperazine], the concentration for a half-maximal effect (EC50) is 8.2 to 9.3 µM in data set [1] (setting [5]), 9.3 ± 0.9 µM in data set [1] (setting [6]), 8.2 to 9.3 µM in data set [4] (Angiostrongylus cantonensis) and 8.8 ± 1.2 µM in data set [4]. Further, the LC50 at 24 h in data set [2] was > 1000 µM. For the same compound, the CC50 at 72 h in data set [3] (HaCat cells) is > 500 µM.

In the case of `O=C(/C=C/c1ccccc1)N1CCN(C(c2ccccc2)c2ccccc2)CC1` [compound 3, (E)-1-(4-Benzhydrylpiperazin-1-yl)-3-phenyl-prop-2-en-1-one], the “activity against the larvae (in words)” value in data set [1] is “no activity”. Moreover, in data set [1] (setting [5]), the EC50 is > 100 µM. For the same compound, in data set [2], the LC50 at 24 h is > 1000 µM. The CC50 at 72 h in data set [3] (HaCat cells) is > 500 µM.

Take `O=C(/C=C/c1ccccc1)N1CCN(Cc2ccccc2)CC1` [compound 3a, (E)-1-(4-Benzylpiperazin-1-yl)-3-phenyl-prop-2-en-1-one]: the EC50 in data set [1] (setting [5]) is 8.2 µM; in data set [1] (setting [6]), 8.7 ± 1.1 µM; in data set [4] (Angiostrongylus cantonensis) it was 18.1 ± 1.5 µM. The LC50 at 24 h in data set [2] was > 1000 µM. The CC50 at 72 h in data set [3] (HaCat cells) was > 500 µM.

In the case of `COc1ccc(/C=C/C(=O)N2CCN(C(c3ccccc3)c3ccccc3)CC2)cc1` [compound 3b, (E)-1-(4-Benzhydrylpiperazin-1-yl)-3-(4-methoxyphenyl)prop-2-en-1-one], the 50% effective concentration (EC50) in data set [1] (setting [5]) was > 100 µM. For the same compound, in data set [2], the LC50 at 24 h was > 1000 µM. Also, the CC50 at 72 h in data set [3] (HaCat cells) was > 500 µM.

As to `O=C(/C=C/c1ccc(O)cc1)N1CCN(C(c2ccccc2)c2ccccc2)CC1` [compound 3c, (E)-1-(4-Benzhydrylpiperazin-1-yl)-3-(4-hydroxyphenyl)prop-2-en-1-one], in data set [1] (setting [5]), the EC50 is > 100 µM. In data set [2], the LC50 at 24 h was > 1000 µM. Further, the 50% cytotoxic concentration (CC50) at 72 h in data set [3] (HaCat cells) was > 500 µM.

As for `COc1cc(/C=C/C(=O)N2CCN(C(c3ccccc3)c3ccccc3)CC2)ccc1O` [compound 3d, (E)-1-(4-Benzhydrylpiperazin-1-yl)-3-(4-hydroxy-3-methoxy-phenyl)prop-2-en-1-one], the EC50 in data set [1] (setting [5]) was > 100 µM. For the same compound, the LC50 at 24 h in data set [2] is > 1000 µM. Moreover, the CC50 at 72 h in data set [3] (HaCat cells) was > 500 µM.

As for `O=C(/C=C/c1ccc(O)c(O)c1)N1CCN(C(c2ccccc2)c2ccccc2)CC1` [compound 3e, (E)-1-(4-Benzhydrylpiperazin-1-yl)-3-(3,4-dihydroxyphenyl)prop-2-en-1-one], in data set [1] (setting [5]), the EC50 was > 100 µM. The median lethal concentration (LC50) at 24 h in data set [2] is > 1000 µM. For the same compound, in data set [3] (HaCat cells), the CC50 at 72 h was > 500 µM.
